In BindingDB's records for patent US10975056 (Glaxosmithkline Intellectual Property Development, 2021):
pIC50: −log10 of the molar value.

The compounds below were run against DNA (cytosine-5)-methyltransferase 1 (Homo sapiens, UniProt P26358) (assay: Biochemical Activity Assay).
Experimental: Biochemical activity of DNMT1 analyzed using SPA technology. […] Low control wells contained 5 μL of buffer instead of enzyme. Following a 40 minute incubation, the reaction was quenched upon the addition of 10 μL of stop mixture containing 1 mM SAM (Sigma A7007) and 2 mg/mL PEI beads (Perkin Elmer RPNQ0098).

DNA (cytosine-5)-methyltransferase 1, sequence (P26358 whole entry): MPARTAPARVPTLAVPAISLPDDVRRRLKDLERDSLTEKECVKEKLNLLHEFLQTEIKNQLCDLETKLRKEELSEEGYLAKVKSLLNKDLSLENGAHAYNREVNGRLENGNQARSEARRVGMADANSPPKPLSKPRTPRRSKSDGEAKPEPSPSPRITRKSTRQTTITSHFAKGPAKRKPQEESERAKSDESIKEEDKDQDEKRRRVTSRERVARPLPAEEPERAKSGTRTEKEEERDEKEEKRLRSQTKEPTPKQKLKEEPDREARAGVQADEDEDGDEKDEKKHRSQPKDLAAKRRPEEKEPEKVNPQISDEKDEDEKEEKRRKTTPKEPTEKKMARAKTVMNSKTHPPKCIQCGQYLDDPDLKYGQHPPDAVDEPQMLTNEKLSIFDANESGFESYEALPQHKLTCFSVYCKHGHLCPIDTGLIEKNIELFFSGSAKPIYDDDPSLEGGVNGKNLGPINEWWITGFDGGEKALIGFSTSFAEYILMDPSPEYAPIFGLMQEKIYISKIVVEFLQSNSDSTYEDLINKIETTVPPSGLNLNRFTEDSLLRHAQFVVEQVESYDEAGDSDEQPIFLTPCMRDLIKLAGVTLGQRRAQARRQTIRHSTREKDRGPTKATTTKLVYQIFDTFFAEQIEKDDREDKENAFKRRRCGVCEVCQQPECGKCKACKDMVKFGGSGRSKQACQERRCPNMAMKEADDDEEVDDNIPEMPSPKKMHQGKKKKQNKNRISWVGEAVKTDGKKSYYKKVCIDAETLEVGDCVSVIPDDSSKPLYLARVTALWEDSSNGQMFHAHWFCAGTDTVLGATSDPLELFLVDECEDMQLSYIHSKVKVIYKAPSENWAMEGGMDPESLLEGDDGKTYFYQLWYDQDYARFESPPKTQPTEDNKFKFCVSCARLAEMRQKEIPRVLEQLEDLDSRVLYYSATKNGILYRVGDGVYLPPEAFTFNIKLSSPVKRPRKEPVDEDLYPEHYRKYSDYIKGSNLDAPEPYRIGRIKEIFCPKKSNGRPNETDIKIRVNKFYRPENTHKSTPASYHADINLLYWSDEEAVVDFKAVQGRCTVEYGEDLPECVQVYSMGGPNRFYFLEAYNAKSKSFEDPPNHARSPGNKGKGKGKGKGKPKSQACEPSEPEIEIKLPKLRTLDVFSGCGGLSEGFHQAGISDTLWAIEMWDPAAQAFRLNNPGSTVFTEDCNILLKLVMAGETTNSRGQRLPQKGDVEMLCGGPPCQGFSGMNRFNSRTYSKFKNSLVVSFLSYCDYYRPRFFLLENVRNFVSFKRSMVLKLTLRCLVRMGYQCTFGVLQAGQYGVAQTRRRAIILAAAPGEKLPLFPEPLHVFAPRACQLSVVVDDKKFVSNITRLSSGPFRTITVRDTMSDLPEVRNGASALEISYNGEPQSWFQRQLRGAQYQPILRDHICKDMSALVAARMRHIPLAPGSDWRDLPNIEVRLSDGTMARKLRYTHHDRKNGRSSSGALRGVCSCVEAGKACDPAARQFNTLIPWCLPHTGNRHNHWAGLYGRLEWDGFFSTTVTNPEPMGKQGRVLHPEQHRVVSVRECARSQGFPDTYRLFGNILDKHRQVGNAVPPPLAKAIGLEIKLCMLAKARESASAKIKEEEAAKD

pIC50	SMILES
> 6.49	CCc1c(C#N)c(SCc2ccc(S(N)(=O)=O)cc2)nc(N2CCCN(C)CC2)c1C#N [US10975056, Example 76]
> 6.49	CCc1c(C#N)c(SC(C(N)=O)c2ccccc2)nc(N2CCC(NCC3(C)CCC3)CC2)c1C#N (centres undefined) [US10975056, Example 466]
> 6.49	CCc1c(C#N)c(SC(C(N)=O)c2ccccc2)nc(N2CCC(N3[C@H](C)CC[C@H]3C)CC2)c1C#N (some centres undefined) [US10975056, Example 472]
> 6.49	CCc1c(C#N)c(SC(C(N)=O)c2ccccc2)nc(N(C)CC(=O)N2CC[C@@H](CO)C2)c1C#N (some centres undefined) [US10975056, Example 652]
